{"source": "patent US20110064794A1", "about": "“Drug Delivery System, its Preparation Process and Use” (priority 2008, published 2011)", "key": {"[1]": {"test_system": "white blood cell", "assay": "routine white blood cell count in H22 model mice", "assay_type": "in vivo, nude mice", "conditions": "20 mg·kg^−1", "experimental": "(§1) Transplanted liver cancer (H22) model in nude mice were established for antitumor drug tests. The nude mice were randomly divided into six groups (10 animals for each group): blank control group, cyclophosphamide positive control group (CTX 20 mg·kg^−1), treatment groups (high, medium and low dosage, 0.20 mg·kg^−1, 0.10 mg·kg^−1 and 0.05 mg·kg^−1) and solution group (non-nanoparticle formulation). The negative control group received injection of physiological saline. After inoculation for four days and with the tumors grown to a certain volume, the mice were treated on the 5th, 7th, 9th, 11th and 13th day. On the 14th day, the mice were sacrificed by cervical dislocation and weighed, dissected to peel off the tumor tissue which was weighed by an electronic balance. The tumor-inhibition rates were calculated by using the following formula: […]\n(§2) all the data were expressed as mean±standard deviation (i.e. x±SD); the mice were bled at caudal vein for routine white blood cell count."}, "[2]": {"test_system": "Transplanted liver cancer (H22)", "assay": "anti-tumor test in transplanted liver cancer (H22) model", "assay_type": "in vivo, nude mice", "conditions": "20 mg/kg", "experimental": "as §1, §2"}, "[3]": {"test_system": "human laryngocarcinoma epithelial cells (Hep-2)", "assay": "MTT inhibition of tumor cell growth, Hep-2", "assay_type": "cell-based", "conditions": "0.1, 1, 10 and 100 μM in DMSO, different culture times (FIG. 7)", "source_text": "Microplate Reader (Switzerland Sunrise); 3-(4,5-dimethylthiazol-2-yl)-2, 5-diphenyl-2H-tetrazolium bromide (MTT) (America Fluka); DMSO (Sigma); RPMI 1640 media (GIBCO); fetal bovine serum (FBS) (Tian Jin TBD Center for Biotechnology Development).\nStudies were respectively carried out on the inhibition effect of cucurbitacin B HSA nanoparticle on the growth of tumor cells in vitro in human laryngocarcinoma epithelial cells (Hep-2), human hepatoma carcinoma cell (HepG-2), human adenocarcinoma of lung cell (A549), and inhibition effect of the same dosage of cucurbitacin B emulsion and liposomes in these cells were compared.\nCells were cultured in RPMI 1640 media containing 10% FBS in an incubator at 37° C. and 5% CO2, and passaged every 3 to 4 days. […] OD (optical density) value of each well was determined in the microplate reader (at 570 nm wavelength). Cell inhibition rate was calculated according to OD value, and the following formula was used: cell inhibition rate (IR)=[(mean OD value of control group−mean OD value of blank group)−(mean OD value of test groups−mean OD value of blank group)]/(mean OD value of control group−mean OD value of blank group). […]\nInhibition effects of various formulations of CuB (cucurbitacin B/HSA solution, CuB HSA nanoparticle, CuB liposome and CuB emulsion) on Hep-2, A549 and HepG-2 tumor cells were detected."}}, "data": [{"molecule": "O=P1(N(CCCl)CCCl)NCCCO1", "note": "(stereo not shown) [CTX, cyclophosphamide]", "values": [{"measurement": "leukocyte number", "setting": "[1]", "result": "3.11e+09", "unit": "L⁻¹"}, {"measurement": "Body weight (g) begin", "setting": "[2]", "result": 19.77, "unit": "g"}, {"measurement": "Body weight (g) end", "setting": "[2]", "result": 21.08, "unit": "g"}, {"measurement": "Number of mice (begin/end)", "setting": "[2]", "result": "10/9"}, {"measurement": "Tumor-inhibition rate (%)", "setting": "[2]; day 14", "result": 55.3, "unit": "%"}, {"measurement": "Weight of tumor (g) (x ± SD)", "setting": "[2]; day 14", "result": "1.26 ± 0.63", "unit": "g"}]}, {"molecule": "CC(=O)OC(C)(C)/C=C/C(=O)[C@](C)(O)[C@H]1[C@H](O)C[C@@]2(C)[C@@H]3CC=C4[C@H](C[C@H](O)C(=O)C4(C)C)[C@]3(C)C(=O)C[C@]12C", "note": "[cucurbitacin B]", "values": [{"measurement": "inhibition effect on the growth of Hep-2 cells", "setting": "[3]", "result": "enhanced along with the extended time and increased dose"}]}]}
